Tests used:
[1] = test system: Plasmodium falciparum (P. f.); assay: In vitro antiprotozoal activity against P. f.; type: cell-based; conditions: in vitro, read-out: P.f. (IC50)
Experimental: (§1) In vitro antiprotozoal activities were measured following established protocols. […] E., et al., Bioorg.

[2] = target: duplex hairpin d[[…]] (SEQ ID NO: 8); assay: Surface plasmon resonance, immobilized duplex hairpin DNA; type: binding; conditions: SPR, 25° C., HEPES buffer containing 200 mM KCl
Experimental: Surface plasmon resonance (SPR) measurements were performed with a four-channel Biacore® 3000 optical biosensor system (Biacore International AB, Uppsala, Sweden). 5′-biotin labeled DNA was immobilized onto streptavidin-coated Biacore® SA sensor chips as previously described. See Lacy, E. R., et al., J. Amer. Chem. Soc., 124, 2153-2163 (2002); Mazur, S., et al., J. Mol. Biol., 300, 321-337 (2000); Nguyen, B., et al., Biopolymers, 63, 281-297 (2002); Wang, L., et at, Proc. Natl. Acad. Sci. USA, 97, 12-16 (2000); and Wang, L., et al., Biochemistry, 40, 2511-2521 (2001). Two flow cells were used to immobilize the
DNA oligomer samples, while a third cell was left blank as a control. […]
Solutions of known concentration of 8 ranging from 2 nM to 10 μM were injected through the flow cells until a constant steady-state response was obtained. […] The instrument response (RU) in the steady-state region was determined by linear averaging over a 50 second time span. The predicted maximum response per bound compound in the steady-state region (RUmax) was determined from the DNA molecular weight, the amount of DNA on the flow cell, the compound molecular weight, and the refractive index gradient ratio of the compound and DNA, as previously described. […]
Surface plasmon resonance (SPR) was used to quantitatively evaluate the interaction between 8 and human telomeric DNA. […]

[3] = test system: Trypanosoma brucei rhodesiense (T. b. r.); assay: In vitro antiprotozoal activity against T. b. r.; type: cell-based
Experimental: as §1

[4] = test system: human telomeric DNA; assay: Thermal melting (ΔTm) of human telomeric DNA; type: binding; conditions: HEPES buffer containing 50 mM KCl monitored at 295 nm (data not shown)
[5] = test system: d[TGGGGT] (SEQ ID NO: 13); assay: CD titration with d[TGGGGT]; type: binding; conditions: 50 mM KCl, 10 mM K2HPO4, 0.1 mM EDTA, pH 7.0
Text: The oligonucleotides d[AG3(T2AG3)3] (SEQ ID NO: 1), d[AG3TG4AG3TG4A] (SEQ ID NO: 2), d[G4(T4G4)3] (SEQ ID NO: 3), d[(T2G4)4] (SEQ ID NO: 4), d[(GC)7] (SEQ ID NO: 5), d[[…]] (SEQ ID NO: 6), d[G2T2G2TGTG2T2G2] (SEQ ID NO: 7), d[[…]] (SEQ ID NO: 8), d[[…]] (SEQ ID NO: 9), d[[…]] (SEQ ID NO: 10), d[[…]] (SEQ ID NO: 11), d[TTAGGGT] (SEQ ID NO: 12), and d[TGGGGT] (SEQ ID NO: 13) were purchased with HPLC purification from Midland Certified Reagent Company (The Midland Certified Reagent Company, Inc., Midland, Tex., USA). The concentration of each DNA sample was determined spectrophotometrically at 260 nm using the nearest neighbor extinction coefficient.
Stock solutions of individual dicationic polyaryl compounds were prepared in double distilled water and diluted to working concentrations immediately before use with buffer. […] Absorbance spectra were obtained on a Varian Cary 300 BIO UV-visible spectrophotometer (Varian, Inc., Palo Alto, Calif., United States of America) in a quartz cell with a 1 cm pathlength. CD spectra were recorded using a Jasco J-810 spectrapolarimeter (Jasco, Inc., Easton, Md., United States of America) in a 1-cm cell using an instrument scanning speed of 50 nm/min with a response time of 1 s. The spectra were averaged over four scans. A buffer baseline scan was collected in the same cuvette and subtracted from the average scan for each sample. […]

**Q.** What does the source list for `N=C(N)c1ccc(-c2ccc(-c3ccc(C(=N)N)o3)o2)cc1` [Compound 8, 5′-(4-Amidinophenyl)-2,2′-bifuran-5-carboxamidine]?
**A.** IC50 [1]: 41.5 nM; K, binding constant for the single site [2]: 130000 M⁻¹; IC50 [3]: 12 nM; ΔTm [4]: approximately 10 °C; induced CD / exciton splitting (in words) [5]: does not show any induced CD or exciton splitting
